The values below come from patent publication US20250282820A1, “PEPTIDE COMPLEX HAVING TRKB BINDING ACTIVITY” (PEPTIDREAM INC, priority 2022, published 2025).

*1 amine or outer side, *2 acyl side, *3 side chain or, on linkers, in order; H or OH if unused. Where a SMILES comes first, the peptide text is derived from it. Bridges are numbered along the chain shown (N, C = ends). Roman numbers before positions name the chains, in order. [ ]: non-standard residue; d: D form. CO(CH2CH2O)13CH2CH2CO = O=C(CCOCCOCCOCCOCCOCCOCCOCCOCCOCCOCCOCCOCCOCCC(=O)[*:2])[*:1]; 3Pal = N[C@@H](Cc1cccnc1)C(=O)O

The target of test [1] is T1, TrkB (CellSensor TrkB-NFAT-bla CHO-K1 Cell) (Homo sapiens, UniProt Q16620).
T1 construct: host or cells: CHO-K1 (CellSensor TrkB-NFAT-bla CHO-K1)
T1 sequence (Q16620 32-822): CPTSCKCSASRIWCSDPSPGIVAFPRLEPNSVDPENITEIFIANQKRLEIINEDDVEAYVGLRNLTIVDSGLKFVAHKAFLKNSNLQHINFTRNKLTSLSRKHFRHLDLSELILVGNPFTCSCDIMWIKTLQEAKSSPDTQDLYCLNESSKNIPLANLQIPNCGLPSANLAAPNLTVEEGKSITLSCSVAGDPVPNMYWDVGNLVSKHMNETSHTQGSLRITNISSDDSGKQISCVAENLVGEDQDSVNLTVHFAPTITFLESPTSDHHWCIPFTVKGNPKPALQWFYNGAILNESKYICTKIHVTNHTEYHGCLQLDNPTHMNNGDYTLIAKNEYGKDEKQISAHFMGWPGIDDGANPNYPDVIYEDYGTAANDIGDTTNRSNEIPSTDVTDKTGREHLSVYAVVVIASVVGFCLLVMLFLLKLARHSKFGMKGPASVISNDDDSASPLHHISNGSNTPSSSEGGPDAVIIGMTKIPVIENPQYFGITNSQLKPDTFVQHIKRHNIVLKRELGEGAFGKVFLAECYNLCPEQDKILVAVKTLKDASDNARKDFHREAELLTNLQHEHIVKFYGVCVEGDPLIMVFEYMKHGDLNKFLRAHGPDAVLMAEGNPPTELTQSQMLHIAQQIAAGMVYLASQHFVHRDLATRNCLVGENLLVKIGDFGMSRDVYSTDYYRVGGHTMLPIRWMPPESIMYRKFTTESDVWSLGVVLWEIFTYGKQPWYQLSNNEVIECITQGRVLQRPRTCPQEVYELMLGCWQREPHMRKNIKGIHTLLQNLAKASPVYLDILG
Description: pERK1/2 AlphaLISA assay (phosphorylation of ERK) for TrkB agonist activity. The format is cell-based. Particulars: class = peptide concentration giving 50% or more activity; BDNF maximum signal = 100%, no stimulation = 0%; 15 minutes of stimulation. Summed up:
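TrkB-NFAT-bla CHO-K1 cells were starved 4 h in 0.1% BSA medium and then stimulated 15 min with peptide or BDNF; p-ERK1/2 (Thr202/Tyr204) in the lysate was read by AlphaLISA SureFire. Activity % was scaled to the BDNF maximum (100%) and no stimulation (0%); A = ≥50% at 1 nM, B = ≥50% at 10 nM; curves were 8 points, 4-fold dilutions from 100 nM.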

In test [2] the target is T2, Recombinant Human TrkC Fc Chimera Protein (Homo sapiens, UniProt Q16288).
T2 construct: purchased R&D Systems
T2 sequence (Q16288 with tags, fused parts or gaps limits assumed): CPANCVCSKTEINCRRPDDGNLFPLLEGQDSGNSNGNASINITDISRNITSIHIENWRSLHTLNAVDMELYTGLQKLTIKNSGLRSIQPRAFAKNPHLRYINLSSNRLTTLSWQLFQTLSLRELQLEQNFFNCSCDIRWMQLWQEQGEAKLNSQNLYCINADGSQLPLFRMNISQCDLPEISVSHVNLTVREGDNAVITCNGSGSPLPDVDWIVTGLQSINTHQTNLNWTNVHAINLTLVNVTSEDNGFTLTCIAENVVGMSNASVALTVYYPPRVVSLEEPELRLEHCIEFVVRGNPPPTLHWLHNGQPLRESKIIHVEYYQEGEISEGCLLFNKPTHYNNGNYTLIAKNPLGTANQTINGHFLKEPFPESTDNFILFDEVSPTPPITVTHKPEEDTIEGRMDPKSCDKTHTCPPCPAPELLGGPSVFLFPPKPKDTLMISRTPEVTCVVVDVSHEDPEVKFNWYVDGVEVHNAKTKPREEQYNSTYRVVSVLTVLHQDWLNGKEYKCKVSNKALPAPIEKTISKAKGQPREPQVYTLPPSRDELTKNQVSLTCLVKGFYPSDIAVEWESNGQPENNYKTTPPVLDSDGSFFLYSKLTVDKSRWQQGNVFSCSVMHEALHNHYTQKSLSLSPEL
Description: Surface plasmon resonance (SPR), Biacore T200, single cycle kinetics. The test is classed as binding. Particulars: FIG. 4. On the procedure: (§1) A CM3 sensor chip (Cytiva) was inserted into a Biacore T200 (Cytiva). Three priming runs were performed using running buffer: HBS-EP+ (Cytiva). The system was then equilibrated at a flow rate of 30 μL/min. After mixing in 50 μL each of a 60 mM EDC solution (Cytiva) and 650 mM NHS solution (Cytiva), the reaction was performed at a flow rate of 10 μL/min for 420 seconds. Then, 135 μL of a 30 ng/μL anti-human IgG (Fc) antibody (Cytiva) solution was prepared by dilution with a 10 mM acetic acid solution (pH 5.0), and the anti-human IgG (Fc) antibody was immobilized on the CM3 sensor chip by reacting it at a flow rate of 10 μL/min for 360 seconds. After immobilization, capping was performed by reacting it with a 1.0M ethanolamine solution (Cytiva) at a flow rate of 10 μL/min for 420 seconds. Each 200 nM Recombinant Human TrkA Fc Chimera Protein, Recombinant Human TrkB Fc Chimera Protein, Recombinant Human TrkC Fc Chimera Protein (R&D Systems) solution was reacted with the immobilized antibody at a flow rate of 10 μL/min for 60 seconds. A liquid prepared by dissolving each peptide at 10 mM in DMSO solution was diluted with running buffer to prepare a peptide-dissolved solution at a final concentration of 10 μM. Subsequently, 50 nM, 25 nM, 12.5 nM, 5 nM, and 2.5 nM peptide solutions were prepared. Using the samples described above, the kinetics of peptide against TrkA, TrkB, and TrkC were obtained by SPR measurements. After reacting a peptide with TrkA, TrkB, and TrkC, regeneration was performed using a reaction with a 3M MgCl solution at 10 μL/min for 180 seconds.
(§2) The kinetic evaluation model was Single Cycle Kinetics, and curve fitting was performed using Biacore T200 Evaluation Software Version 3.0 (Cytiva). The binding of peptides to TrkA, TrkB, and TrkC was evaluated by performing least-squares curve fitting on the obtained sensorgrams and calculating their Kd values (dissociation constants).
Background: In SPR one partner is held on a chip, and binding of the other changes the refractive index at the surface.

The target in test [3] is T3, Recombinant Human TrkB Fc Chimera Protein (Homo sapiens, UniProt Q16620).
T3 construct: purchased R&D Systems
The test is described as above. The format is binding. To be noted: for Kd: calculated by employing the lower theoretical limit of 0.00001 (1/s) for koff, read-out: Kd (dissociation constant) of binding to TrkB. On the procedure:
as §1, §2

The target in test [4] is T4, Recombinant Human TrkA Fc Chimera Protein (Homo sapiens, UniProt P04629).
T4 construct: purchased R&D Systems
T4 sequence (P04629 with tags, fused parts or gaps limits assumed): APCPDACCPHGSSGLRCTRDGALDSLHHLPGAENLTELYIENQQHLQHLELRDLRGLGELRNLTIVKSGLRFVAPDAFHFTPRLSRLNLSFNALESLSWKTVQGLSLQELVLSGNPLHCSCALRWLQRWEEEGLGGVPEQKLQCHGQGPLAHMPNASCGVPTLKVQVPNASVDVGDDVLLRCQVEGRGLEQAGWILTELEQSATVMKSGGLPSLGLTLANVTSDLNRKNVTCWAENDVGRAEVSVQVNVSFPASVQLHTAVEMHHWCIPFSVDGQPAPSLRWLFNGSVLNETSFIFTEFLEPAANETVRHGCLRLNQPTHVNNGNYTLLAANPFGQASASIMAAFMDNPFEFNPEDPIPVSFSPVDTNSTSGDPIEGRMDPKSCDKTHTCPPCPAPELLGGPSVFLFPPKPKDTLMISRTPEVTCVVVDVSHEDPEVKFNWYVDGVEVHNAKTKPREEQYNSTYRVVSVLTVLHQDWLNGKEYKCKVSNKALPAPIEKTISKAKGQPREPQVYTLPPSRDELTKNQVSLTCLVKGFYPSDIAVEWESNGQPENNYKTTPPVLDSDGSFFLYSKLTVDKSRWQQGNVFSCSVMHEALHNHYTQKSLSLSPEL
The description is as above. The test is classed as binding. To be noted: FIG. 4. On the procedure:
as §1, §2

Take `CC(C)[C@@H]1NC(=O)[C@H](Cc2cccnc2)NC(=O)[C@H](CCC(=O)O)NC(=O)[C@H](CO)NC(=O)[C@H](Cc2ccc(O)cc2)NC(=O)[C@H]([C@@H](C)O)NC(=O)[C@@H]2CCCN2C(=O)[C@H](Cc2c[nH]c3ccccc23)NC(=O)[C@H](Cc2cccnc2)NC(=O)[C@H](Cc2ccc(O)cc2)NC(=O)[C@@H]2CCCN2C(=O)[C@H](CO)NC(=O)[C@H](Cc2ccccc2)NC(=O)CSC[C@@H](C(=O)NCC(=O)N[C@@H](CCCCNC(=O)CCOCCOCCOCCOCCOCCOCCOCCOCCOCCOCCOCCOCCOCCC(=O)NCCCC[C@H](NC(=O)CNC(=O)[C@@H]2CSCC(=O)N[C@@H](Cc3ccccc3)C(=O)N[C@@H](CO)C(=O)N3CCC[C@H]3C(=O)N[C@@H](Cc3ccc(O)cc3)C(=O)N[C@@H](Cc3cccnc3)C(=O)N[C@@H](Cc3c[nH]c4ccccc34)C(=O)N3CCC[C@H]3C(=O)N[C@@H]([C@@H](C)O)C(=O)N[C@@H](Cc3ccc(O)cc3)C(=O)N[C@@H](CO)C(=O)N[C@@H](CCC(=O)O)C(=O)N[C@@H](Cc3cccnc3)C(=O)N[C@@H](C(C)C)C(=O)N[C@@H](CCC(=O)O)C(=O)N2)C(N)=O)C(N)=O)NC(=O)[C@H](CCC(=O)O)NC1=O` [compound 48] (I: {CH2CO}-FSPY[3Pal]WPTYSE[3Pal]VECGK-NH2 / II: {CH2CO}-FSPY[3Pal]WPTYSE[3Pal]VECGK-NH2; linker I:17-II:17 via CO(CH2CH2O)13CH2CH2CO; thioether I:N-I:15, II:N-II:15): the “pERK (aLISA) Assay Results” value in test [1] was “A (The peptide with 50% or more activity when 1 nM of the peptide was added was evaluated as A)”. The “binding to TrkC” value in test [2] was “no binding”. For the same compound, in test [3], the “koff (dissociation rate constant) of binding to TrkB” value was “exceeded the measurement limit” and the Kd is ≤ 0.1 nM. The “binding to TrkA” value in test [4] is reported as “no binding”.
With `CC(C)[C@@H]1NC(=O)[C@H](Cc2cccnc2)NC(=O)[C@H](CCC(=O)O)NC(=O)[C@H](CO)NC(=O)[C@H](Cc2ccc(O)cc2)NC(=O)[C@H]([C@@H](C)O)NC(=O)[C@@H]2CCCN2C(=O)[C@H](Cc2c[nH]c3ccccc23)NC(=O)[C@H](Cc2cccnc2)NC(=O)[C@H](Cc2ccc(O)cc2)NC(=O)[C@@H]2CCCN2C(=O)[C@H](CCC(=O)O)NC(=O)[C@H](Cc2ccccc2)NC(=O)CSC[C@@H](C(=O)NCC(=O)N[C@@H](CCCCNC(=O)CCOCCOCCOCCOCCOCCOCCOCCOCCOCCOCCOCCOCCOCCC(=O)NCCCC[C@H](NC(=O)CNC(=O)[C@@H]2CSCC(=O)N[C@@H](Cc3ccccc3)C(=O)N[C@@H](CCC(=O)O)C(=O)N3CCC[C@H]3C(=O)N[C@@H](Cc3ccc(O)cc3)C(=O)N[C@@H](Cc3cccnc3)C(=O)N[C@@H](Cc3c[nH]c4ccccc34)C(=O)N3CCC[C@H]3C(=O)N[C@@H]([C@@H](C)O)C(=O)N[C@@H](Cc3ccc(O)cc3)C(=O)N[C@@H](CO)C(=O)N[C@@H](CCC(=O)O)C(=O)N[C@@H](Cc3cccnc3)C(=O)N[C@@H](C(C)C)C(=O)N[C@@H](CCC(=O)O)C(=O)N2)C(N)=O)C(N)=O)NC(=O)[C@H](CCC(=O)O)NC1=O` [compound 56] (I: {CH2CO}-FEPY[3Pal]WPTYSE[3Pal]VECGK-NH2 / II: {CH2CO}-FEPY[3Pal]WPTYSE[3Pal]VECGK-NH2; linker I:17-II:17 via CO(CH2CH2O)13CH2CH2CO; thioether I:N-I:15, II:N-II:15), the “pERK (aLISA) Assay Results” value in test [1] is “A (The peptide with 50% or more activity when 1 nM of the peptide was added was evaluated as A)”. For the same compound, the “binding to TrkC” value in test [2] is “no binding”. For the same compound, in test [3], the “koff (dissociation rate constant) of binding to TrkB” value is listed as “exceeded the measurement limit” and the Kd is ≤ 0.1 nM. In addition, in test [4], the “binding to TrkA” value is “no binding”.

For orientation: Kd means the equilibrium constant for the complex coming apart.
